US20070128731A1, “Methods for preparing crystalline rapamycin and for measuring crystallinity of rapamycin compounds using differential scanning calorimetry” (Wyeth, priority 2005, published 2007)

Experiment: Storage stability of crystalline rapamycin followed by DSC
Type: physicochemical
Description: In one example, the crystallinity is maintained over a period of about 2 months. In another example, the crystallinity is maintained over a period of about 4 months. In a further example, the crystallinity is maintained up to about 60% relative humidity.
In this example, samples containing rapamycin (Table 3) were analyzed by DSC and optical microscopy. The morphology and approximate particle size were determined using optical microscopy. A standard DSC sample ramp rate of 10° C./min and a hermetically sealed aluminum pan were utilized.
Sample 2 contained crystalline rapamycin and about 2 to about 3% of oxidative/hydrolysis degradation impurities and was prepared using the process of Example 3. A portion of the batch was maintained at 25° C. and 60% relative humidity for 2 months.
Sample 3 contains crystalline rapamycin and about 2 to about 3% of oxidative/hydrolysis degradation impurities and was prepared using the process of example 3. A portion of the batch was subjected to 25° C. and 60% relative humidity for 4 months.

effect of low levels of impurities on DSC melting temperature over time (about 2 to about 3% oxidative/hydrolysis degradation impurities, 25° C. and 60% relative humidity, 2 and 4 months): do not affect
crystallinity on storage (period up to 4 months at up to about 60% relative humidity): substantially maintained
change in the DSC melting endotherm on storage (stored for up to 4 months at up to about 60% relative humidity): minimal change
SMILES: CO[C@H]1C[C@@H]2CC[C@@H](C)[C@@](O)(O2)C(=O)C(=O)N2CCCC[C@H]2C(=O)O[C@H]([C@H](C)C[C@@H]2CC[C@@H](O)[C@H](OC)C2)CC(=O)[C@H](C)/C=C(\C)[C@@H](O)[C@@H](OC)C(=O)[C@H](C)C[C@H](C)/C=C/C=C/C=C/1C [rapamycin]
